# US10947222B2, “Indole derivatives useful as inhibitors of diacylglyceride O-acyltransferase 2” (Merck Sharp & Dohme Corp., priority 2016, dated 2021)
# Molecular target: human DGAT2 (hDGAT2) (Homo sapiens (Human), UniProt Q96PD7)
# Assay: DGAT2 enzymatic activity assay (triolein formation, LC/MS/MS)
# Assay type: biochemical
# Conditions: Sf-9 membrane prep expressing hDGAT2; 25 μM diolein, 10 μM oleoyl-CoA; triolein by LC/MS/MS
# Protocol: Sf-9 insect cells were maintained in Grace's insect cell culture medium with 10% heated-inactivated fetal bovine serum, 1% Pluronic F-68 and 0.14 μg/ml Kanamycine sulfate in Erlenmeyer flasks at 28° C. in a shaker incubator. After infection with untagged baculovirus expressing human DGAT2 (hDGAT2) at multiplicity of infection (MOI) 0.1 for 48 hours, cells were harvested. Cell pellets were suspended in buffer containing 10 mM Tris-HCl (pH 7.5), 1 mM EDTA (pH 8.0), 250 mM sucrose and Complete Protease Inhibitor Cocktail (Roche Diagnostics Corp., Indianapolis, Ill.), and sonicated on ice. Membrane fractions were isolated by ultracentrifugation (100,000×g pellet), resuspended in the same buffer, and frozen (−80° C.) for later use. The protein concentration was determined with the BCA Protein Assay kit (Pierce Biotechnology Inc., Rockford, Ill.). Expression of protein levels was analyzed by immunoblotting with goat polyclonal DGAT2 antibody C-15 and donkey anti-goat IgG HRP (Santa Cruz Biotechnology, Inc., Santa Cruz, Calif.) followed by detection with ECL reagent (GE Healthcare, Piscataway, N.J.).
# LC/MS/MS analyses were performed using Thermal Fisher's LX4-TSQ Vantage system. This system consists of an Agilent binary high-performance liquid chromatography (HPLC) pumps and a TSQ Vantage triple quadrupole MS/MS instrument. For each sample, 2 μL samples from the top organic layer of in-plate liquid-liquid extraction were injected onto a Thermo Betabasic C4 column (2.1 mm×20 mm, 5 μm particle size). The samples were then eluted using the following conditions; mobile phase: methanol/water with 0.1% ammonium format=92/8 (v/v), flow rate: 1 mL/min, temperature: 25 C. Data was acquired in positive mode using a heated electrospray ionization (HESI) interface. The operational parameters for the TSQ Vantage MS/MS instrument were a spray voltage of 3000 V, capillary temperature of 280° C., vaporizer temperature 400° C., shealth gas 60 arbitrary unit, Aux gas 40 arbitrary units, S-lens 113 and collision gas 0.16 Pascals. […] (SRM) chromatograms of triolein (Q1:902.9>Q3:602.3) and internal standard (Q1:902.9>Q3:602.3) were collected for 40 sec. The peak area was integrated by Xcalibur Quan software. The ratio between the triolein generated in the reaction and spiked in internal standard was used to generate percentage inhibition and IC50 values. Compound percentage inhibition was calculated by the following formula: Inhibition %/=1−[(compound response−low control)/(high control−low control)]×100%. Potent compounds were titrated and IC50 were calculated by 4 parameter sigmoidal curve fitting formula.
# DGAT2 activity was determined by measuring the amount of enzymatic product triolein (1,2,3-Tri(cis-9-octadecenoyl)glycerol) using the membrane prep mentioned above. The assay was carried out in deep well 384 plates in a final volume of 40 μL at rt. The assay mixture contained the following: assay buffer (100 mM Tris.Cl, pH 7.0, 20 mM MgCl2, 5% ethanol), 25 μM of diolein, 10 μM of oleoyl-CoA and 10 ng/μL of DGAT2 membrane.
# Sequence of human DGAT2 (hDGAT2) (Q96PD7 whole entry): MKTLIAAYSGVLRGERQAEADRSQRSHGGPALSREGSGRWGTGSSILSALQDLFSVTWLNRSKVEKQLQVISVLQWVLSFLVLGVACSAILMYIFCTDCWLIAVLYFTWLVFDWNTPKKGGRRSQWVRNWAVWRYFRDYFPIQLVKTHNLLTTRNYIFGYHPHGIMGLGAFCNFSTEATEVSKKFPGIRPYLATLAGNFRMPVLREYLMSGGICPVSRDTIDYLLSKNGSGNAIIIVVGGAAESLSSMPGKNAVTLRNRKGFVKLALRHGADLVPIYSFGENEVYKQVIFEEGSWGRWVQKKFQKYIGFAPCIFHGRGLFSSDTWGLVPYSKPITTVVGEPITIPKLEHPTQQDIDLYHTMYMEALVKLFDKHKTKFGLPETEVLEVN
row,IC50 [nM],Compound
1,55,"O=C(NC1CCS(=O)(=O)C1)c1ccc2c(-c3ccccc3)cn(-c3ccc(F)cc3)c2c1 (racemic) [Example 43, N-(1,1-dioxidotetrahydrothiophen-3-yl)-1-(4-fluorophenyl)-3-phenyl-1H-indole-6-carboxamide (racemic)]"
2,19,"O=C(NC1CCS(=O)(=O)C1)c1ccc2c(-c3cccc(Cl)c3Cl)cn(-c3ccc(F)cc3)c2c1 (racemic) [Example 44, 3-(2,3-dichlorophenyl)-N-(1,1-dioxidotetrahydrothiophen-3-yl)-1-(4-fluorophenyl)-1H-indole-6-carboxamide (racemic)]"
3,13,"N#Cc1cccc(-c2cn(-c3ccc(F)cc3)c3cc(C(=O)NC4CCS(=O)(=O)C4)ccc23)c1 (racemic) [Example 45, 3-(3-cyanophenyl)-N-(1,1-dioxidotetrahydrothiophen-3-yl)-1-(4-fluorophenyl)-1H-indole-6-carboxamide (racemic)]"
4,2.1,"O=C(NC1CCS(=O)(=O)C1)c1ccc2c(-c3cccc(C4CC4)c3)cn(-c3ccc(F)cc3)c2c1 (racemic) [Example 46, 3-(3-cyclopropylphenyl)-N-(1,1-dioxidotetrahydrothiophen-3-yl)-1-(4-fluorophenyl)-1H-indole-6-carboxamide (racemic)]"
5,942,"O=C(NC1CCS(=O)(=O)C1)c1ccc2c(-c3c(Cl)cccc3Cl)cn(-c3ccc(F)cc3)c2c1 (racemic) [Example 47, 3-(2,6-dichlorophenyl)-N-(1,1-dioxidotetrahydrothiophen-3-yl)-1-(4-fluorophenyl)-1H-indole-6-carboxamide (racemic)]"
6,53,"O=C(NC1CCS(=O)(=O)C1)c1ccc2c(-c3c(F)cccc3F)cn(-c3ccc(F)cc3)c2c1 (racemic) [Example 48, 3-(2,6-difluorophenyl)-N-(1,1-dioxidotetrahydrothiophen-3-yl)-1-(4-fluorophenyl)-1H-indole-6-carboxamide (racemic)]"
7,155,"O=C(NC1CCS(=O)(=O)C1)c1ccc2c(-c3c(F)cccc3Cl)cn(-c3ccc(F)cc3)c2c1 (racemic) [Example 49, 3-(2-chloro-6-fluorophenyl)-N-(1,1-dioxidotetrahydrothiophen-3-yl)-1-(4-fluorophenyl)-1H-indole-6-carboxamide (racemic)]"
8,321,"O=C(NC1CCS(=O)(=O)C1)c1ccc2c(-c3cncnc3)cn(-c3ccc(F)cc3)c2c1 (racemic) [Example 50, N-(1,1-dioxidotetrahydrothiophen-3-yl)-1-(4-fluorophenyl)-3-pyrimidin-5-yl-1H-indole-6-carboxamide (racemic)]"
9,102,"Cn1ccc2cc(-c3cn(-c4ccc(F)cc4)c4cc(C(=O)NC5CCS(=O)(=O)C5)ccc34)ccc21 (racemic) [Example 51, N-(1,1-dioxidotetrahydrothiophen-3-yl)-1-(4-fluorophenyl)-1′-methyl-1H,1′H-3,5′-biindole-6-carboxamide (racemic)]"
10,129,"O=C(NC1CCS(=O)(=O)C1)c1ccc2c(-c3cccnc3)cn(-c3ccc(F)cc3)c2c1 (racemic) [Example 52, N-(1,1-dioxidotetrahydrothiophen-3-yl)-1-(4-fluorophenyl)-3-pyridin-3-yl-1H-indole-6-carboxamide (racemic)]"
11,502,"Cc1noc(C)c1-c1cn(-c2ccc(F)cc2)c2cc(C(=O)NC3CCS(=O)(=O)C3)ccc12 (racemic) [Example 53, 3-(3,5-dimethylisoxazol-4-yl)-N-(1,1-dioxidotetrahydrothiophen-3-yl)-1-(4-fluorophenyl)-1H-indole-6-carboxamide (racemic)]"
12,345,"Cn1cc(-c2cn(-c3ccc(F)cc3)c3cc(C(=O)NC4CCS(=O)(=O)C4)ccc23)cn1 (racemic) [Example 54, N-(1,1-dioxidotetrahydrothiophen-3-yl)-1-(4-fluorophenyl)-3-(1-methyl-1H-pyrazol-4-yl)-1H-indole-6-carboxamide (racemic)]"
13,696,"Cc1ccc(-c2cn(-c3ccc(F)cc3)c3cc(C(=O)NC4CCS(=O)(=O)C4)ccc23)cc1 (racemic) [Example 55, N-(1,1-dioxidotetrahydrothiophen-3-yl)-1-(4-fluorophenyl)-3-(4-methylphenyl)-1H-indole-6-carboxamide (racemic)]"
14,117,"O=C(NC1CCS(=O)(=O)C1)c1ccc2c(-c3ccc(-n4cccn4)cc3)cn(-c3ccc(F)cc3)c2c1 (racemic) [Example 56, N-(1,1-dioxidotetrahydrothiophen-3-yl)-1-(4-fluorophenyl)-3-[4-(1H-pyrazol-1-yl)phenyl]-1H-indole-6-carboxamide (racemic)]"
15,562,"O=C(NC1CCS(=O)(=O)C1)c1ccc2c(-c3ccc(OC(F)F)cc3)cn(-c3ccc(F)cc3)c2c1 (racemic) [Example 57, 3-[4-(difluoromethoxy)phenyl]-N-(1,1-dioxidotetrahydrothiophen-3-yl)-1-(4-fluorophenyl)-1H-indole-6-carboxamide (racemic)]"
16,14,"O=C(NC1CCS(=O)(=O)C1)c1ccc2c(-c3cccc(OC(F)(F)F)c3)cn(-c3ccc(F)cc3)c2c1 (racemic) [Example 58, N-(1,1-dioxidotetrahydrothiophen-3-yl)-1-(4-fluorophenyl)-3-[3-(trifluoromethoxy)phenyl]-1H-indole-6-carboxamide (racemic)]"
17,492,"O=C(NC1CCS(=O)(=O)C1)c1ccc2c(-c3cccc(O)c3)cn(-c3ccc(F)cc3)c2c1 (racemic) [Example 59, N-(1,1-dioxidotetrahydrothiophen-3-yl)-1-(4-fluorophenyl)-3-(3-hydroxyphenyl)-1H-indole-6-carboxamide (racemic)]"
18,175,"COC(=O)c1cc(-c2cn(-c3ccc(F)cc3)c3cc(C(=O)NC4CCS(=O)(=O)C4)ccc23)cs1 (racemic) [Example 60, methyl 4-{6-[(1,1-dioxidotetrahydrothiophen-3-yl)carbamoyl]-1-(4-fluorophenyl)-1H-indol-3-yl}thiophene-2-carboxylate (racemic)]"
19,929,"Cc1cc(C)n(-c2cccc(-c3cn(-c4ccc(F)cc4)c4cc(C(=O)NC5CCS(=O)(=O)C5)ccc34)c2)n1 (racemic) [Example 61, 3-[3-(3,5-dimethyl-1H-pyrazol-1-yl)phenyl]-N-(1,1-dioxidotetrahydrothiophen-3-yl)-1-(4-fluorophenyl)-1H-indole-6-carboxamide (racemic)]"
20,171,"O=C(NC1CCS(=O)(=O)C1)c1ccc2c(-c3ccccc3Cl)cn(-c3ccc(F)cc3)c2c1 (single isomer, unassigned) [Example 2-A, 3-(2-chlorophenyl)-N-(1,1-dioxidotetrahydrothiophen-3-yl)-1-(4-fluorophenyl)-1H-indole-6-carboxamide]"
21,30,"O=C(NC1CCS(=O)(=O)C1)c1ccc2c(-c3ccccc3Cl)cn(-c3ccc(F)cc3)c2c1 (single isomer, unassigned) [Example 2-B, 3-(2-chlorophenyl)-N-(1,1-dioxidotetrahydrothiophen-3-yl)-1-(4-fluorophenyl)-1H-indole-6-carboxamide]"
22,5.6,"CC1(NC(=O)c2ccc3c(-c4ccccc4Cl)cn(-c4ccc(F)cc4)c3c2)CCS(=O)(=O)C1 (single isomer, unassigned; enantiomer a) [Example 1-A, 3-(2-chlorophenyl)-1-(4-fluorophenyl)-N-(3-methyl-1,1-dioxidotetrahydrothiophen-3-yl)-1H-indole-6-carboxamide (Enantiomer A, fast)]"
23,934,"Cc1c(-c2ccccc2Cl)c2ccc(C(=O)NC3(C)CCS(=O)(=O)C3)cc2n1-c1ccc(F)cc1 (single isomer, unassigned; enantiomer a) [Example 8-A, 3-(2-chlorophenyl)-1-(4-fluorophenyl)-2-methyl-N-(3-methyl-1,1-dioxidotetrahydrothiophen-3-yl)-1H-indole-6-carboxamide (Enantiomer A)]"
